Tests used:
[1] = molecular target: T1, Adrenergic receptor alpha-1 (Rattus norvegicus, UniProt P15823+P23944+P43140); assay: Binding affinity towards alpha-1 adrenergic receptor using [3H]prazosin radioligand.; format: protein assay
T1 sequence (P15823 whole entry): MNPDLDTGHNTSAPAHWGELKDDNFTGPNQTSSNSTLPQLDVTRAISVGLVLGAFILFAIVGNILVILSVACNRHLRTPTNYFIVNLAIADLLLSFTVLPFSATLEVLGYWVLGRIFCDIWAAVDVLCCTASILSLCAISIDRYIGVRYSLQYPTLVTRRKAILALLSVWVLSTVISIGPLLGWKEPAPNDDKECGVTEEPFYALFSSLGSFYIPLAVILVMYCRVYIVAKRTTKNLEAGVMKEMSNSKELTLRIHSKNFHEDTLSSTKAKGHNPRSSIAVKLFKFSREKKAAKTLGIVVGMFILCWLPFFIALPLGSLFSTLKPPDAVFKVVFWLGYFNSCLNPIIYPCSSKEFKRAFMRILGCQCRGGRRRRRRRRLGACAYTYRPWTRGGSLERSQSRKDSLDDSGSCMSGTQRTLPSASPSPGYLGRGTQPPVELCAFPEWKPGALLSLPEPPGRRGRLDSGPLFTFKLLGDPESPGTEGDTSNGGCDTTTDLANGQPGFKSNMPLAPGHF
T1 sequence (P23944 whole entry): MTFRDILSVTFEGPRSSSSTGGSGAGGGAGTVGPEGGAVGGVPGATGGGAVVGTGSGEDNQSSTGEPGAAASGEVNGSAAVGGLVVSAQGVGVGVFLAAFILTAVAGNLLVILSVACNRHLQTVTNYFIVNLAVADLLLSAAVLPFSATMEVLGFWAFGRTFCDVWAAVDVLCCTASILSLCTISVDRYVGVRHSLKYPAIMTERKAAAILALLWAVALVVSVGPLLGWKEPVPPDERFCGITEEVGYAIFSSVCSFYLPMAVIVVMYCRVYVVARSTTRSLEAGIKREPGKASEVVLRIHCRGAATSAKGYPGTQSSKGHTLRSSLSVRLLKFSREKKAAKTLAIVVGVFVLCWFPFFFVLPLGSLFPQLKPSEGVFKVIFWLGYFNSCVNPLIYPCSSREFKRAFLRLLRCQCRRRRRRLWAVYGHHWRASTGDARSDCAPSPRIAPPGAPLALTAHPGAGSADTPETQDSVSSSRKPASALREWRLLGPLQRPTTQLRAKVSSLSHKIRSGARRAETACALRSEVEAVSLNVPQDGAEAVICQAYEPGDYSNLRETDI
T1 sequence (P43140 whole entry): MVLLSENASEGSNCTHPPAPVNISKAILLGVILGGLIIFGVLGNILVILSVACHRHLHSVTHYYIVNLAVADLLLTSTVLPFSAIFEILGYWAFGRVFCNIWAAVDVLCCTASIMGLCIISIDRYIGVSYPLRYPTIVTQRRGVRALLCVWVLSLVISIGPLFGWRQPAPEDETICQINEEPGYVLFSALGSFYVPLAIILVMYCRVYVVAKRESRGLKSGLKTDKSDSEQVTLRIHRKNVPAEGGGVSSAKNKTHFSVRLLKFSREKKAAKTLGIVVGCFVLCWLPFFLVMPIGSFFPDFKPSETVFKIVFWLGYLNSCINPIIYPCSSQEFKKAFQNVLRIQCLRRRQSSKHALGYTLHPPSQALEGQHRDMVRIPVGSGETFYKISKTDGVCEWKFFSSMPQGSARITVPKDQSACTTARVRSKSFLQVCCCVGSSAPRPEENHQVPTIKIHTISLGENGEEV

D(2) dopamine receptor = D(2) dopamine receptor (Rattus norvegicus, UniProt P61169); assay: Binding affinity towards dopamine receptor D2 using [3H]-raclopride radioligand.
[2] = molecular target: T2, 5-hydroxytryptamine receptor 1A (Rattus norvegicus, UniProt P19327); assay: Binding affinity towards rat 5-hydroxytryptamine 1A receptor using [3H]8-OH-DPAT radioligand.
T2 sequence (P19327 whole entry): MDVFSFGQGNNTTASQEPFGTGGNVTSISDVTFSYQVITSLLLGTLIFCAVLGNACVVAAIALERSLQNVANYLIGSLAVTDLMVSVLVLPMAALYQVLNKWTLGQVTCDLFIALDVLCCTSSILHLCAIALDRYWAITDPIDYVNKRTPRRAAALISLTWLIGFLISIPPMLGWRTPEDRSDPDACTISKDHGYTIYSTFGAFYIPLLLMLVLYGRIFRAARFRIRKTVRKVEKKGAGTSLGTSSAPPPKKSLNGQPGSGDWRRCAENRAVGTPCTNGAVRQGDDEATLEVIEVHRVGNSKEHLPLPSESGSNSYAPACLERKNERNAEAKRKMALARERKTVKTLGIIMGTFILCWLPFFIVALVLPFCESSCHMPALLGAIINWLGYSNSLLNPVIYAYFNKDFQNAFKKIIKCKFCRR

Chain of D(2) dopamine receptor (P61169 whole entry): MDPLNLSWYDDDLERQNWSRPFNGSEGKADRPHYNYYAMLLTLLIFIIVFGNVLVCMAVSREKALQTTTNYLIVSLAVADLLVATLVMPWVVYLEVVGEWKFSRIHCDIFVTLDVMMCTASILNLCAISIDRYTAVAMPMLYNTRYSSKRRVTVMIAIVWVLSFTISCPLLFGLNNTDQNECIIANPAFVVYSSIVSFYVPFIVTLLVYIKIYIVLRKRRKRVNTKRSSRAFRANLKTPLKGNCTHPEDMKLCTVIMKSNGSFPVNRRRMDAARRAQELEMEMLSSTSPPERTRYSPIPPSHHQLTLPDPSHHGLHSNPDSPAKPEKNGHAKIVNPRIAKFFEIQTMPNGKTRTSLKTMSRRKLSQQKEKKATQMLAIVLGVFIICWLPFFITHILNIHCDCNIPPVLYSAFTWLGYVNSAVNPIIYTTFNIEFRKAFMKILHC

Row | Ki [1] [nM] | Ki (D(2) dopamine receptor) [nM] | Ki [2] [nM] | Structure (SMILES)
1 | > 1000 | > 10000 | > 10000 | O=C1C2CCCCN2C(=O)N1CCN1CCN(c2ccc(F)cc2)CC1 (stereo not drawn)
2 | 3.1 | > 1000 | 4.4 | COc1ccccc1N1CCN(CCCN2C(=O)C3CCCN3C2=O)CC1 (stereo not drawn)
3 | 9.6 | 151 | 11.3 | O=C1C2CCCN2C(=O)N1CCCCN1CCN(c2cccc(Cl)c2)CC1 (stereo not drawn)
4 | 15.4 | > 1000 | 19.2 | O=C1C2CCCN2C(=O)N1CCCN1CCN(c2ccccc2)CC1 (stereo not drawn)
5 | > 1000 | > 1000 | > 1000 | O=C1C2CCCCN2C(=O)N1CCN1CCN(c2ccccc2)CC1 (stereo not drawn)
6 | > 1000 | > 1000 | 78.6 | O=C1C2CCCCN2C(=O)N1CN1CCN(c2cccc(C(F)(F)F)c2)CC1 (stereo not drawn)
7 | > 10000 | > 10000 | > 1000 | O=C1C2CCCN2C(=O)N1CN1CCN(c2ccc([N+](=O)[O-])cc2)CC1 (stereo not drawn)
8 | 10.4 | 615 | 57.9 | O=C1C2CCCCN2C(=O)N1CCCCN1CCN(c2ccc(F)cc2)CC1 (stereo not drawn)
9 | 131 | 246 | 45.5 | COc1ccccc1N1CCN(CCN2C(=O)C3CCCCN3C2=O)CC1 (stereo not drawn)
10 | > 1000 | > 1000 | > 1000 | O=C1C2CCCN2C(=O)N1CCN1CCN(c2ccccc2)CC1 (stereo not drawn)
11 | 135 | > 10000 | 57.7 | O=C1C2CCCCN2C(=O)N1CN1CCN(c2cccc(Cl)c2)CC1 (stereo not drawn)
12 | 292 | > 10000 | 58.4 | O=C1C2CCCN2C(=O)N1CN1CCN(c2cccc(Cl)c2)CC1 (stereo not drawn)
13 | > 1000 | > 10000 | > 10000 | O=C1C2CCCCN2C(=O)N1CCCN1CCN(c2ccc([N+](=O)[O-])cc2)CC1 (stereo not drawn)
14 | 21.6 | > 1000 | 55.9 | O=C1C2CCCN2C(=O)N1CCCN1CCN(c2cccc(Cl)c2)CC1 (stereo not drawn)
15 | 11.4 | > 1000 | 154 | O=C1C2CCCCN2C(=O)N1CCCN1CCN(c2ccccc2)CC1 (stereo not drawn)
16 | > 10000 | > 10000 | > 10000 | O=C1C2CCCCN2C(=O)N1CCN1CCN(c2ccc([N+](=O)[O-])cc2)CC1 (stereo not drawn)
17 | > 1000 | > 1000 | 65.8 | O=C1C2CCCCN2C(=O)N1CCN1CCN(c2cccc(C(F)(F)F)c2)CC1 (stereo not drawn)
18 | 18.6 | > 1000 | – | O=C1C2CCCCN2C(=O)N1CCCCN1CCN(c2ccccc2)CC1 (stereo not drawn)
19 | 12.1 | 129 | 7.2 | O=C1C2CCCCN2C(=O)N1CCCCN1CCN(c2cccc(Cl)c2)CC1 (stereo not drawn)
20 | 109 | > 1000 | 3.8 | O=C1C2CCCN2C(=O)N1CCCN1CCN(c2cccc(C(F)(F)F)c2)CC1 (stereo not drawn)
21 | 8.3 | 107 | 5.5 | COc1ccccc1N1CCN(CCCCN2C(=O)C3CCCN3C2=O)CC1 (stereo not drawn)
22 | > 1000 | > 10000 | 500 | O=C1C2CCCN2C(=O)N1CN1CCN(c2ccc(F)cc2)CC1 (stereo not drawn)
23 | > 1000 | > 1000 | 120 | O=C1C2CCCN2C(=O)N1CN1CCN(c2cccc(C(F)(F)F)c2)CC1 (stereo not drawn)

Row | Ki [1] [nM] | Ki (D(2) dopamine receptor) [nM] | Ki [2] [nM] | Structure (SMILES)
24 | > 1000 | > 10000 | > 10000 | O=C1C2CCCN2C(=O)N1CCN1CCN(c2ccc(F)cc2)CC1 (stereo not drawn)
25 | 26.4 | 416 | 24.8 | O=C1C2CCCN2C(=O)N1CCCCN1CCN(c2ccccc2)CC1 (stereo not drawn)
26 | 9.9 | > 1000 | 4.1 | COc1ccccc1N1CCN(CCCN2C(=O)C3CCCCN3C2=O)CC1 (stereo not drawn)
27 | 17.9 | > 1000 | 53.6 | O=C1C2CCCCN2C(=O)N1CCCN1CCN(c2cccc(Cl)c2)CC1 (stereo not drawn)
28 | > 1000 | > 1000 | > 1000 | O=C1C2CCCCN2C(=O)N1CCCCN1CCN(c2ccc([N+](=O)[O-])cc2)CC1 (stereo not drawn)
29 | 25.8 | > 1000 | 598 | O=C1C2CCCCN2C(=O)N1CCCN1CCN(c2ccc(F)cc2)CC1 (stereo not drawn)
30 | 90.4 | > 1000 | 5.7 | O=C1C2CCCCN2C(=O)N1CCCN1CCN(c2cccc(C(F)(F)F)c2)CC1 (stereo not drawn)
31 | > 1000 | > 10000 | > 10000 | O=C1C2CCCN2C(=O)N1CCCN1CCN(c2ccc([N+](=O)[O-])cc2)CC1 (stereo not drawn)
32 | 1000 | > 10000 | 85.3 | O=C1C2CCCN2C(=O)N1CN1CCN(c2ccccc2)CC1 (stereo not drawn)
33 | 500 | > 1000 | 34.9 | COc1ccccc1N1CCN(CN2C(=O)C3CCCN3C2=O)CC1 (stereo not drawn)
34 | 375 | > 1000 | 128 | O=C1C2CCCCN2C(=O)N1CCN1CCN(c2cccc(Cl)c2)CC1 (stereo not drawn)
35 | 190 | 361 | 234 | COc1ccccc1N1CCN(CCN2C(=O)C3CCCN3C2=O)CC1 (stereo not drawn)
36 | > 10000 | > 10000 | > 10000 | O=C1C2CCCN2C(=O)N1CCN1CCN(c2ccc([N+](=O)[O-])cc2)CC1 (stereo not drawn)
37 | 25.2 | > 1000 | > 1000 | O=C1C2CCCN2C(=O)N1CCCN1CCN(c2ccc(F)cc2)CC1 (stereo not drawn)
38 | 500 | > 1000 | 418 | O=C1C2CCCN2C(=O)N1CCN1CCN(c2cccc(Cl)c2)CC1 (stereo not drawn)
39 | > 10000 | > 10000 | > 1000 | O=C1C2CCCCN2C(=O)N1CN1CCN(c2ccc([N+](=O)[O-])cc2)CC1 (stereo not drawn)
40 | 8.6 | > 1000 | 8.8 | COc1ccccc1N1CCN(CCCCN2C(=O)C3CCCCN3C2=O)CC1 (stereo not drawn)
41 | 47.2 | > 1000 | 89.9 | O=C1C2CCCN2C(=O)N1CCCCN1CCN(c2ccc(F)cc2)CC1 (stereo not drawn)
42 | 64.9 | > 1000 | 2.4 | O=C1C2CCCN2C(=O)N1CCCCN1CCN(c2cccc(C(F)(F)F)c2)CC1 (stereo not drawn)
43 | 247 | > 1000 | > 1000 | O=C1C2CCCN2C(=O)N1CCCCN1CCN(c2ccc([N+](=O)[O-])cc2)CC1 (stereo not drawn)
44 | > 1000 | > 1000 | 123 | O=C1C2CCCN2C(=O)N1CCN1CCN(c2cccc(C(F)(F)F)c2)CC1 (stereo not drawn)
45 | – | 64 | – | COc1ccccc1N1CCN(CCCCN2C(=O)c3ccccc3C2=O)CC1 [NAN-190]

Row | Structure (SMILES) | Ki [1] [nM] | Ki (D(2) dopamine receptor) [nM] | Ki [2] [nM]
46 | O=C1C2CCCCN2C(=O)N1CN1CCN(c2ccccc2)CC1 (stereo not drawn) | > 1000 | > 10000 | 101
47 | O=C1C2CCCCN2C(=O)N1CN1CCN(c2ccc(F)cc2)CC1 (stereo not drawn) | 869 | > 10000 | 444
